Where “and” joins values, the source holds several entries; their conditions need not be identical. Equal entries are not always repeated.
Test system: Human immunodeficiency virus 1
Test: Antiviral activity against HIV1 in MT4 cells assessed as reduction of virus-induced cytopathicity by XTT assay
Format: functional

Row | Compound | Log10ED50 | pED50
1 | COc1ccc(CCNC(=S)Nc2nccs2)cc1 | 0.7404 | 
2 | N#Cc1ccc(F)c(CC/N=C(\S)Nc2ccc(Cl)cn2)c1F |  | 2.2218
3 | CC(C)c1csc(NC(=S)NCCc2ccccc2)n1 | 0.1139 | 
4 | COc1ccc(OC)c(CCNC(=S)Nc2ccc(Cl)cn2)c1 |  | 1.3979
5 | S=C(NCCc1ccccn1)Nc1ccc(Br)cn1 [TROVIRDINE] |  | 1.6989
6 | Fc1ccc(CCNC(=S)Nc2nccs2)cc1 | 0.5185 | 
7 | CCOc1cccc(F)c1CCNC(=S)Nc1ccc(Br)cn1 |  | 1.886 and 1.6989
8 | COCc1ccc(F)c(CCNC(=S)Nc2ccc(Br)cn2)c1F |  | 2.2218
9 | N#Cc1csc(NC(=S)NCCc2ccccc2)n1 |  | 0.6989
10 | S=C(NCCc1ccccc1)Nc1nncs1 | 0.7243 | 
11 | CCOc1ccc(F)c(F)c1CCNC(=S)Nc1ccc(Br)cn1 |  | 2.1549
12 | CCOc1ccc(F)c(CCNC(=S)Nc2ccc(I)cn2)c1Cl |  | 1.8239
13 | COc1ccccc1CCNC(=S)Nc1nccs1 |  | 0.3979
14 | COc1ccc(F)c(CCNC(=S)Nc2ccc(Cl)cn2)c1OC |  | 1.9208
15 | CCCCc1csc(NC(=S)NCCc2ccccc2)n1 | 0.1139 | 
16 | Fc1ccccc1CCNC(=S)Nc1nccs1 |  | 1
17 | S=C(NCCc1ccccc1)Nc1ccc(Br)cn1 |  | 1.301
18 | Fc1cccc(F)c1CCNC(=S)Nc1nccs1 |  | 1.6989
19 | N#Cc1ccc(F)c(CCNC(=S)Nc2ccc(Br)cn2)c1F |  | 1.886
20 | COc1cccc(F)c1CCNC(=S)Nc1nccs1 |  | 0.5229
21 | COc1ccc(OC)c(CCNC(=S)Nc2ccc(Cl)cn2)c1F |  | 2.6989
22 | COc1ccc(OC)c(CCNC(=S)Nc2nccs2)c1 |  | 0.3979
23 | Cc1ccc(NC(=S)NCCc2ccccn2)nc1 |  | 0.5228

Row | Compound | Log10ED50 | pED50
24 | O=[N+]([O-])c1ccccc1CCNC(=S)Nc1nccs1 | 0.0414 | 
25 | CCOc1ccc(OCC)c(CCNC(=S)Nc2ccc(Br)cn2)c1 |  | 1.7447
26 | S=C(NCCc1ccccc1)Nc1ncc(Cl)s1 | 0.4314 | 
27 | Cc1csc(NC(=S)NCCc2ccccc2)n1 |  | 0.3979
28 | S=C(NCCc1ccccc1)Nc1nccs1 | 0.1139 | 
29 | S=C(NCCc1ccccc1Cl)Nc1nccs1 |  | 0.3979
30 | CCc1csc(NC(=S)NCCc2c(F)cccc2F)n1 |  | 1.0969
31 | FC(F)(F)c1csc(NC(=S)NCCc2ccccc2)n1 |  | 0.301
32 | Cn1cccc1CNC(=S)Nc1ccc(Cl)cn1 |  | 0.602
33 | Cn1cccc1CNC(=S)Nc1ccc(C#N)cn1 |  | 0.959
34 | Fc1cccc(Cl)c1CCNC(=S)Nc1nccs1 |  | 1.301
35 | Fc1cccc(F)c1CC/N=C(\S)Nc1ccc(Br)cn1 |  | 2
36 | CCOc1c(Cl)cc(F)c(CCNC(=S)Nc2ccc(Br)cn2)c1Cl |  | 1.886
37 | CC(=O)NCc1ccc(F)c(CCNC(=S)Nc2ccc(Br)cn2)c1F |  | 0.0457
38 | CCOc1ccc(F)c(CCNC(=S)Nc2ccc(Cl)cn2)c1Cl |  | 2.0969
39 | COc1ccc(F)c(F)c1CC/N=C(\S)Nc1ccc(Br)cn1 |  | 2.1589
40 | Cc1ccc(NC(=S)NCCc2c(F)cccc2F)nc1 |  | 2
41 | Oc1ccccc1CCNC(=S)Nc1nccs1 | 0.602 | 
42 | S=C(NCCc1ccccc1)Nc1ccccn1 |  | 0.6989
43 | CCOC(=O)c1csc(NC(=S)NCCc2ccccc2)n1 |  | 0.301
44 | N#Cc1csc(NC(=S)NCCc2c(F)cccc2F)n1 |  | 1.5229
45 | S=C(NCCc1ccccn1)Nc1nccs1 | 0.1139 | 
46 | COc1cccc(CCNC(=S)Nc2nccs2)c1 |  | 0.2218

Row | Compound | Log10ED50 | pED50
47 | CN(C)c1ccc(F)c(CCNC(=S)Nc2ccc(Br)cn2)c1F |  | 1.7447 and 1.3979
48 | COc1cccc(OC)c1CCNC(=S)Nc1nccs1 |  | 1.0457
49 | COc1ccc(F)c(CCNC(=S)Nc2ccc(Br)cn2)c1F |  | 1.8239
50 | CCOc1ccc(F)c(CCNC(=S)Nc2ccc(Br)cn2)c1Cl [THIOUREA, N-(5-BROMO-2-PYRIDINYL)-N'-(2-(2-CHLORO-3-ETHOXY-6-FLUOROPHENYL)ETHYL)-] |  | 2.1549
51 | Fc1cccc(CCNC(=S)Nc2nccs2)c1 |  | 0.6021
52 | CCOc1ccc(OC)c(CCNC(=S)Nc2ccc(Cl)cn2)c1F |  | 2.301
53 | CCOc1cccc(F)c1CCNC(=S)Nc1ccc(C)cn1 |  | 0.6989
54 | CC(C)Oc1cccc(CCNC(=S)Nc2nccs2)c1 |  | 0.3979
55 | S=C(NCCc1cccc(Oc2ccccc2)c1)Nc1nccs1 | 0.4471 | 
56 | CN(C)C(=O)c1ccc(F)c(CCNC(=S)Nc2ccc(Br)cn2)c1F |  | 1.0969
57 | Cc1ccc(NC(=S)NCCc2ccccc2)nc1 |  | 0.8239
58 | S=C(NCCc1cccnc1)Nc1nccs1 | 0.8062 | 
59 | S=C(NCCc1ccco1)Nc1nccs1 | 0.716 | 
60 | CCc1csc(NC(=S)NCCc2ccccc2)n1 |  | 0.1549
61 | COc1ccc(Br)cc1CCNC(=S)Nc1nccs1 |  | 1.301
62 | CCOc1ccc(F)c(CCNC(=S)Nc2ccc(Br)cn2)c1F |  | 2.2218
63 | CCCOc1cccc(CCNC(=S)Nc2nccs2)c1 | 0.3424 | 
64 | CCCc1csc(NC(=S)NCCc2ccccc2)n1 | 0.2041 | 
65 | Cc1ccccc1CCNC(=S)Nc1nccs1 |  | 0.0227
66 | CCOc1ccc(F)c(CCNC(=S)Nc2ccc(C#N)cn2)c1Cl |  | 2.5229
67 | CCOc1cccc(CCNC(=S)Nc2nccs2)c1 |  | 0.8239
68 | CCOc1cccc(F)c1CCNC(=S)Nc1nccs1 |  | 0.6989
69 | CN(C)c1ccc(F)c(CCNC(=S)Nc2ccc(Cl)cn2)c1F |  | 1.3979
